# According to patent US20260042801A1, “COMPOSITIONS AND METHODS FOR DYE-BOUND CYCLIZED PEPTIDES FOR MEDICAL USE” (The Texas A&M University System, priority 2022, published 2026):
# Assays:
# TrkC = target: T1, TrkC (Homo sapiens, UniProt Q16288); test: Cell-associated fluorescence saturation binding, TrkC-NIH/3T3 cells; settings: 2.5 h, with and without 0.2 nM NT-3
# T1 construct: expressed in transfected cells; host or cells: NIH/3T3 (TrkC-NIH/3T3)
# Procedure: FIG. 2: 5c(i) binds to TrkB and TrkC receptors. Transfected cell lines that are Trk positive cells (TrkB-HEK293 and TrkC-NIH/3T3) and non-transfected cell lines that are Trk negative cells (HEK293 and NIH/3T3) were seeded approximately 2,000 cells/well in a 96-well plate and incubated for 24 hours. The cells were treated with a serial dilution of compound (0, 10, 25, 50, 100, 200, 500, and 1000 nM) in serum-free media (SFM) with and without A) 0.6 nM of BDNF (TrkB-HEK293 and HEK293) and B) 0.2 nM of NT-3 (TrkC-NIH/3T3 and NIH/3T3) for 2.5 h. After that, the cells were washed with PBS once to remove unbound compounds and dissolved in 1% (w/v) aqueous sodium dodecyl sulfate. Cell-associated fluorescence was then determined by measuring the emission of the resulting solution upon λex (540/25 nm) and λem (620/40 nm) using Agilent BioTek Synergy H4 Hybrid Microplate Reader. Kd was calculated by GraphPad Prism 9 using Binding saturation (One site—Specific binding).
# Transfected cell lines that are Trk positive cells (TrkA-HeLa, TrkB-HEK293, and TrkC-NIH/3T3) and non-transfected cell lines that are Trk negative cells (HeLa, HEK293, and NIH/3T3) were seeded at 2,000 cells/well in a 96-well plate (0.32 cm^2 growth area) and incubated inside a 5% CO2 incubator at 37° C. for 24 hours. […] The dissociation constant (Kd) was calculated using binding saturation (One site—Specific binding).
# [1] = tested on: severe T8 contusion/compression SCI; test: Preclinical SCI model: liver Masson's trichrome collagen deposition; type: in vivo, mouse; settings: 7 weeks post injury
# Procedure: N=6-8. […] Student's T-test.
# Mice were sacrificed 7 weeks after injury by a lethal dose of Fatal plus (pentobarbital), then, transcardial perfusion was performed with PBS-Heparin (10,000 unit/L, 20 mL, 5 mL/min) followed by a 4% paraformaldehyde fixative solution (30 mL/mouse, at 5 mL/min). Right after perfusion, tissues were immersed in 4% PFA for 24 hours, transferred to 15% sucrose for 24 hours, then transferred to 30% sucrose for 24 hours before being embedded. Subsequently, the spinal cords (at injury site±1 mm) were cut into 25 μm-thick transverse sections using a freezing microtome (THERMO FISHER SCIENTIFIC® (laboratory reagents), Microm HM550). […] The images were acquired using VS120 Virtual Slide Microscope (Olympus) and Axio Observer 7 (ZEISS® (optical products)) and analyzed with QuPath 0.4.3. […] The lesion size was measured by tracing the glial scar border labeled with GFAP surrounding a DAPI^+ inner region. Cavity size was measured by measuring the region within the spinal cord without any visible nuclei yet surrounded by GFAP labeled glial scar. Three spinal cord sections per animal were imaged and analyzed. […] Images were quantified using QuPath software. […] Collagen accumulation was quantified using automated QuPath software to determine the extent of fibrosis.
# [2] = Blood-brain and blood-spinal cord barrier penetration after IP administration; type: in vivo; settings: uninjured mouse, IP 60 mg/kg, 1 hour, intrinsic fluorescence
# Procedure: FIG. 6: 5c(i) penetrates the blood-brain and -spinal cord barriers. 4-month-old uninjured female mouse was IP administered 60 mg/kg 5c(i). The mouse was euthanized 1 hour after 5c(i) administration and perfused with PFA. The spinal cord was dissected and sectioned sagittal at 25 μm and stained with NeuN and DAPI. The brain was dissected and sectioned coronal at 50 μm and stained with GFAP and DAPI. 5c(i) was identified through its intrinsic fluorescence. Scale bar=100 μm.
# This is highly significant as most drugs cannot penetrate the central nervous system (CNS), resulting in very costly late-stage failures in CNS drug development^94. 5c(i) therefore in specific embodiments can cross the BBB and target the brain, such as through IP administration, for indications relating to brain function, such as AD and stroke. 5c(i) has even higher potential for penetrating the CNS after SCI when permeability is increased^95-97.
# T1 sequence (Q16288 32-839, species assumed): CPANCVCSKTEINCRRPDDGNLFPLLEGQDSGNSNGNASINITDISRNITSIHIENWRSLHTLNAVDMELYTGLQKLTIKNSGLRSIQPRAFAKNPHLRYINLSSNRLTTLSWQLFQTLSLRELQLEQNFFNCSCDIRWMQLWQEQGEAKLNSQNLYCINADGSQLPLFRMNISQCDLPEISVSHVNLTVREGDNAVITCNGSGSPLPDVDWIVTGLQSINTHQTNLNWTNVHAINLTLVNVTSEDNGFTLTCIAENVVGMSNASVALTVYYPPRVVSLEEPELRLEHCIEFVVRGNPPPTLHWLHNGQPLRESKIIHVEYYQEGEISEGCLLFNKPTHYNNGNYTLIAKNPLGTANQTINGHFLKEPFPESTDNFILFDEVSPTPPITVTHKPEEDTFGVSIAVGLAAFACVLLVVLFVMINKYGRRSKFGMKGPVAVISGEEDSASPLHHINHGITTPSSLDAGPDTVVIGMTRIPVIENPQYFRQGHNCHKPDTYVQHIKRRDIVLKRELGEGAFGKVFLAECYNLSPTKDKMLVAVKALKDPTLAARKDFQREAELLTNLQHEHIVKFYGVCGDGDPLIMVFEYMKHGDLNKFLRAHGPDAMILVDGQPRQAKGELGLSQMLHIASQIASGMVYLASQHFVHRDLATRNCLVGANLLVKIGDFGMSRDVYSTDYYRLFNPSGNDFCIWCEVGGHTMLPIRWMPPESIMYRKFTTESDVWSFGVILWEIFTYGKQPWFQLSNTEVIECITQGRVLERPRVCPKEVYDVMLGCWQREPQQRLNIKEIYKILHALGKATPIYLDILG
substance,measurement,setting,value
C-DIRG-C BODIPY® (fluorescent dye) [5c(i)],affinity for TrkC (Kd),TrkC,low nanomolar affinity
same,liver collagen deposition,[1],alleviated
same,penetration of blood-brain barrier (BBB),[2],easily penetrate
same,penetration of blood-spinal cord barrier (BSCB),[2],easily penetrate
